From article PMC10726441, “Discovery of Tumor-Targeted 6-Methyl Substituted Pemetrexed and Related Antifolates with Selective Loss of RFC Transport” (ACS Medicinal Chemistry Letters, 2023)

Key:
[1] = test system: D4 (FRβ) CHO cells; assay: Cell proliferation assay, D4 CHO cells expressing FRβ; assay type: cell-based, Chinese hamster; conditions: for IC50: Cricetulus griseus, CHO, 96 h, 0-1000 nM, mean (standard error), 3-5 experiments; for RFC/FRβ Selectivity ratios: ratio of IC50 PC43-10 (RFC) to IC50 D4 (FRβ)
Excerpt: (§1) To assess the impact of 6-methyl substitutions on the bicyclic scaffolds of the pyrrolo[2,3-d]pyrimidine antifolates 1–4 on RFC transport vis-à-vis PCFT, FRα, and FRβ, we used a unique biological readout for transport activity. This involved proliferation assays with isogenic Chinese hamster ovary (CHO) sublines derived from RFC-, FR-, and PCFT-null MTXRIIOua^R2–4 CHO cells[39],[40] engineered to express the human FRα (RT16),[25] FRβ (D4),[25] RFC (PC43–10),[41] or PCFT (R2/PCFT4).[26],[42] As these CHO cell lines are genetically identical except for their folate transporters, differences in inhibition of cell proliferation by specific cytotoxic antifolates directly reflect transporter specificities.[19],[23]−[31],[42] […]
(§2) Reagents for biological studies. Leucovorin [(6R,S) 5-formyl tetrahydrofolate] and methotrexate (MTX) was provided by the Drug Development Branch, National Cancer Institute, Bethesda, MD. Other chemicals were obtained from commercial sources in the highest available purities. Pemetrexed (PMX; 1) [N-{4-[2- (2-amino-3,4-dihydro-4-oxo-7H-pyrrolo[2,3-d]pyrimidin-5-yl)ethyl]benzoyl-L-glutamic acid] (Alimta) was purchased from LC Laboratories (Woburn, MA). The syntheses of compounds 2 and 3 were previously described.7, 8 Additional chemicals were purchased from commercial sources in the highest available purities.
(§3) Cell Culture. The reduced folate carrier (RFC), proton-coupled folate transporter (SLC46A1; PCFT) and folate receptor (FR) α- and β-null Chinese hamster ovary (CHO) cell line MTXRIIOuaR2-49 was a gift from Dr. Wayne Flintoff (University of Western Ontario, London, ON). Four sublines were derived from the R2 subline by transfection with either RFC, PCFT, FRα, or FRβ, giving rise to PC43-10 (expresses human RFC), 10 R2/PCFT4 (expresses human PCFT),11 RT16 (expresses human FRα), 12 and D4 (expresses FRβ) cells. 12 Isogenic CHO sublines were routinely cultured in α-minimal essential medium (α-MEM) supplemented with 100 units/mL penicillin/100 μg/mL streptomycin, 2 mM L-glutamine and 10% bovine calf serum (Sigma-Aldrich). Transfected sublines of R2 cells were cultured in the presence of 1.5 mg/ml G418. […]
(§4) mM L-glutamine. Cell lines were tested for Mycoplasma by PCR using a Mycloplasma testing kit (Venor™ GeM Mycoplasma Detection Kit, Sigma). Frozen stocks were generated from authenticated Mycoplasma-free cultures.
(§5) For cell proliferation assays, CHO, KB, NCI-IGROV1 and IOSE 7576 cells were plated in 96-well dishes at densities ranging from 2500-5000 cells/well in 200 μL media and treated with a range of inhibitors spanning 0-1000 nM. Experiments with RT16, D4, IGROV1, IOSE 7576 and KB cells used folate-free RPMI 1640 (FF RPMI) media with 10% dialyzed fetal bovine serum and 100 units/mL penicillin/100 μg/mL streptomycin, supplemented with 2 nM leucovorin and 2 mM L-glutamine. FR-mediated drug uptake was assessed in parallel incubations including 200 nM folic acid. For R2/PCFT4, PC43-10 and R2 CHO cells, the medium was FF-RPMI supplemented with 10% dialyzed fetal bovine serum, 100 units/mL penicillin/100 μg/mL streptomycin, 25 nM leucovorin and 2 mM L-glutamine.
(§6) Cells were treated over a 96 h period at 37° C with 5% CO2 and relative cell numbers quantified using the CellTiter-blue cell viability assay (Promega, Madison, WI) and a fluorescence plate reader. Raw data were exported to Excel for analysis and the results were plotted using Graphpad Prism 6.0. Determinations of IC50s were made […]
(§7) assays have been previously described.7, 8, 11, 12, 15-20
(§8) Using KB cells, additional proliferation assays were performed with metabolite protection in folate- and glycine-free RPMI1640 with 10% dialyzed fetal bovine serum, 2 mM L-glutamine and antibiotics with 2 nM leucovorin to identify the targeted pathway and enzyme(s). 7, 8, 11, 12, 15-20 Inhibitory effects of the novel analogs on de novo thymidylate biosynthesis and de novo purine nucleotide biosynthesis were tested by incubating drugs with thymidine (10 μM) and adenosine (60 μM), respectively. […]

[2] = test system: R2/PCFT4 (PCFT) CHO cells; assay: Cell proliferation assay, R2/PCFT4 CHO cells expressing human PCFT; assay type: cell-based, Chinese hamster; conditions: for IC50: Cricetulus griseus, R2/PCFT4, 96 h, 0-1000 nM, mean (standard error), 3-5 experiments; for RFC/PCFT Selectivity ratios: ratio of IC50 PC43-10 (RFC) to IC50 R2/PCFT4 (PCFT)
Excerpt: as §1, §2, §3, §4, §5, §6, §7, §8

[3] = test system: IOSE 7576 normal ovary cells; assay: Cell proliferation assay, IOSE 7576 normal ovary cells; assay type: cell-based, human; conditions: for IC50: Homo sapiens, 96 h, 0-1000 nM, mean (standard error), 3-5 experiments
Excerpt: For the tumor cells, except the des-methyl compound 4 with IGROV1 cells, all compounds were inhibitory. […]
Reagents for biological studies. Leucovorin [(6R,S) 5-formyl tetrahydrofolate] and methotrexate (MTX) was provided by the Drug Development Branch, National Cancer Institute, Bethesda, MD. Other chemicals were obtained from commercial sources in the highest available purities. Pemetrexed (PMX; 1) [N-{4-[2- (2-amino-3,4-dihydro-4-oxo-7H-pyrrolo[2,3-d]pyrimidin-5-yl)ethyl]benzoyl-L-glutamic acid] (Alimta) was purchased from LC Laboratories (Woburn, MA). The syntheses of compounds 2 and 3 were previously described.7, 8 Additional chemicals were purchased from commercial sources in the highest available purities. […]
KB nasopharyngeal carcinoma cells were obtained from the American Type Culture Collection (Manassas, VA) and IGROV1 (NCI-IGROV1) (passage 5) ovarian adenocarcinoma cells13 were obtained from the Division of Cancer Treatment and Diagnosis, National Cancer Institute (Frederick, MD). Normal ovary cells immortalized with SV40 (IOSE 7576)14 were obtained from the Canadian OvCaRe Cell Bank […]
(Vancouver, B.C). IGROV1, KB and IOSE 7576 cells were cultured in complete FF-RPMI with 10% fetal bovine serum and 100 units/mL penicillin/100 μg/mL streptomycin, and 2 mM L-glutamine. Cell lines were tested for Mycoplasma by PCR using a Mycloplasma testing kit (Venor™ GeM Mycoplasma Detection Kit, Sigma). Frozen stocks were generated from authenticated Mycoplasma-free cultures.
as §5, §6, §7
as §8, with “respectively. Incubation with glycine (130 µM) was used to assess the potential involvement of mitochondrial C1 targeted agents.15 To identify multiple metabolic targets, metabolite additions were added in combination.7, 8, 11, 12, 15-19 Finally, to distinguish targeting between the folate-dependent purine biosynthetic enzymes glycinamide ribonucleotide formyltransferase (GARFTase) and 5-aminoimidazole-4-carboxamide (AICA) ribonucleotide formyltransferase (AICARFTase), co-incubation experiments were performed using AICA hydrochloride (320 μM). 7, 8, 11, 12,” for “respectively.”
Statistics. The biological data reflect at least three experimental replicates. All statistical comparisons were performed using unpaired t-tests. Biological data are presented as mean values +/- standard errors using data without transformation.

SMILES | IC50 [1] [nM] | RFC/FRβ Selectivity ratios [1] | IC50 [2] [nM] | RFC/PCFT Selectivity ratios [2] | IC50 [3] [nM] | inhibition of IOSE 7576 cells (in words) [3]
Cc1[nH]c2nc(N)[nH]c(=O)c2c1CCc1ccc(C(=O)N[C@@H](CCC(=O)O)C(=O)O)cc1 [Compound 5] | 5.7 | >175 | 7.66 | >130 | > 1000 | –
Cc1[nH]c2nc(N)[nH]c(=O)c2c1CCCc1ccc(C(=O)N[C@@H](CCC(=O)O)C(=O)O)cc1 [Compound 6] | 2.61 | >383 | 64.7 | >15.5 | 824 | modestly inhibitory
Nc1nc2[nH]cc(CCc3ccc(C(=O)N[C@@H](CCC(=O)O)C(=O)O)c(F)c3)c2c(=O)[nH]1 [Compound 4] | 8.9 | 19 | 25.9 | 6.5 | > 1000 | inactive
Cc1[nH]c2nc(N)[nH]c(=O)c2c1CCc1ccc(C(=O)N[C@@H](CCC(=O)O)C(=O)O)s1 [Compound 7] | 2.98 | >335 | 51.5 | >19.4 | > 1000 | –
Cc1[nH]c2nc(N)[nH]c(=O)c2c1CCc1ccc(C(=O)N[C@@H](CCC(=O)O)C(=O)O)c(F)c1 [Compound 8] | 49 | >20 | > 1000 | – | > 1000 | –
Nc1nc2[nH]cc(CCc3ccc(C(=O)N[C@@H](CCC(=O)O)C(=O)O)cc3)c2c(=O)[nH]1 [Compound 1, reference compound] | 63.2 | – | – | – | 627 | –
Nc1nc2[nH]cc(CCCc3ccc(C(=O)N[C@@H](CCC(=O)O)C(=O)O)cc3)c2c(=O)[nH]1 [Compound 2] | 3.54 | – | – | – | 13.2 | –
Nc1nc2[nH]cc(CCc3ccc(C(=O)N[C@@H](CCC(=O)O)C(=O)O)s3)c2c(=O)[nH]1 [Compound 3] | 552 | 0.11 | 80.2 | 0.75 | 39.3 | –
